7 compounds from patent US5776935A, “Pyrido-phtalazin diones and their use against neurological disorders associated with excitotoxicity and malfunctioning of glutamatergic neurotransmission” (Merz & Co. GmbH & Co., priority 1996, dated 1998) can be followed below.

Like-named read-outs stand apart in the source and are kept apart here.

Test [1] has as its system AMPA receptor. Kind of test: Patch clamp, inward currents to AMPA in cultured superior colliculus neurones. It counts as cell-based, rat. To be noted: AMPA 100 μM. Here is the method:
Cells were mechanically dissociated in 0.05% DNAase / 0.3% ovomucoid (Sigma) following a 15 minute pre-incubation with 0.66% trypsin / 0.1% DNAase (Sigma). The dissociated cells were then centrifuged at 18G for 10 minutes, resuspended in minimum essential medium (Gibco) and plated at a density of 200,000 cells cm onto poly-L-lysine (Sigma)-precoated plastic petri dishes (Falcon). The cells were nourished with NaHCO3 /HEPES-buffered minimum essential medium supplemented with 5% foetal calf serum and 5% horse serum (Gibco) and incubated at 37° C. with 5%CO2 at 95% humidity. The medium was exchanged completely following inhibition of further glial mitosis with cytosine-β-D-arabinofuranoside (20 μM Sigma) after about 7 days in vitro. Thereafter the medium was exchanged partially twice weekly. […] Moreover, the relatively small neurones (soma 15-20 μm .phi.) are ideally suited to minimise problems of buffered diffusion for concentration clamp experiments.
Patch clamp recordings were made from these neurones with polished glass electrodes (4-6 m.OMEGA.) in the whole cell mode at room temperature (20°-22° C.) with the aid of an EPC-7 amplifier (List). Test substances were applied by switching channels of a custom made fast superfusion system with a common outflow (10-20 ms exchange times). The contents of the intracellular solution were as follows (mM): CsCl (120), TEACl (20), EGTA (10), MgCl2 (1), CaCl2 (0.2), glucose (10), ATP (2), cAMP (0.25); pH was adjusted to 7.3 with CsOH or HCl. The extracellular solutions had the following basic composition (mM): NaCl (140), KCl (3), CaCl2 (0.2), glucose (10), HEPES (10), sucrose (4.5), tetrodotoxin (TTX 3*10-4). For most experiments glycine (1 μM) was present in all solutions. Experiments to test the glycine-dependence of the tricyclic "pyrido-phtalazin diones" were performed in the continuous presence of increasing concentrations of glycine (1-10 μM).
In contrast, three of these potent glycine, antagonists were only very weak antagonists of inward currents to AMPA (100 μM). […] This profile of action, although very weak, is typical for competitive AMPA receptor antagonists which preferentially block the peak non-desensitised state, low affinity state of the receptor (see Parsons et al., 1994).
For orientation: In patch-clamp work, channel activity is measured electrically.

In test [2] the target is T1, NMDA receptor (Rattus norvegicus, UniProt P35439).
T1 construct: endogenous in cells
The test is described as follows: Microelectrophoretic application of NMDA to spinal neurones in vivo. To be noted: i.v., responses of single rat spinal neurones. Here is the method:
The ability of these glycineB antagonists to act as NMDA receptor antagonists in vivo was assessed using i.v. administration against responses of single neurones in the rat spinal cord to microelectrophoretic application of AMPA and NMDA.

Test [3] addresses T2, NMDA receptor (Mus musculus, UniProt P35438).
T2 construct: from tissue; host or cells: living mice (albino Swiss males for NMDA and PTZ tests, NMR females for MES)
The test is described as follows: NMDA-induced convulsions / lethality test. To be noted: ip, 0.25 h, i.p., 15 min before induction, read-out: NMDA ID50. The test is classed as in vivo. Here is the method: To assess NMDA receptor antagonistic properties of the tested agents by assessing anticonvulsive effects. Additionally the role of organic acid transporters in the elimination from the brain of tested agents was assessed by using an inhibitor, Probenicid, on the duration of anticonvulsive activity.
Male albino Swiss mice (19-21 g) housed 10-15 per cage were used for the NMDA lethality test (Leander et al., 1988). For pentylenetetrazol (PTZ)-induced convulsions male albino Swiss mice (25-34 g.) housed 40 per cage (58×38×20 cm) were used while in the maximal electroshock (MES) and motor impairment tests NMR female mice (18-28 g) housed 5 per cage were employed. All animals were kept with water and food ad libittum under a 12-h light-dark cycle (light on at 6 a.m.), and at a controlled temperature (20°±0.5° C.). All experiments were performed between 10 a.m. and 5 p.m. Tested agents were injected 15 min. i.p before the induction of convulsions if not stated otherwise (see below). Mrz 2/502 was dissolved in saline added with NaOH. Most other agents were dissolved in the following solution: 0.606 g Tris; 5.0 g. glucose; 0.5 g. Tween 80; and 95 ml water. The choline and tetramethylammonium salts were dissolved in distilled water.
In the NMDA-induced convulsions test in mice, a dose-response relationship for NMDA was first performed to determine the ED97 dose which was then used for testing of antagonistic properties. After injection of the ED97 dose of NMDA the animals were placed in a small cage (20×28×14 cm) and observed for 20 min. Death preceded by clonic convulsions and by tonic seizures was the pharmacological end-point.

The target of test [4] is T2, NMDA receptor. The test is described as follows: Maximal electroshock (MES)-induced tonic convulsions. It counts as in vivo. Conditions: i.p.; for ED50: mouse, ip, 0.25 h, read-out: MES ID50.
In test [5] the test system is cortical neurones. Kind of test: Excitotoxicity in vitro (NMDA, LDH efflux). The test is classed as cell-based, rat. Conditions: for IC50: Rattus norvegicus, Cortical neurone, 0.5 mM NMDA/1 μM glycine, 24 h, read-out: Cytotoxicity in vitro IC50; for neuroprotection in vitro: low μM concentrations. Here is the method: Isolation of cortical neurones was similar to that described for patch clamp recordings except for the use of foetal rats at 17-19 days gestation. Neurones were plated in 24-multiwell (Greiner) at a density of 300,000 cells/well coated with poly-D-lysine 0.025 mg/ml. Cells were cultured in Dulbecco's modified essential medium (DMEM, GIBCO) supplemented with 10% heat inactivated foetal calf serum (GIBCO). Cultures were maintained at 37° C. at 5% CO2. The medium was changed first after one week and then every 3 days by replacing half of the medium with fresh medium. Cultures aged 17 days were used for experiments.
Exposure to EAA was performed in serum-free MEM-N2 medium (Bottenstein 1979) containing 0.5 mM NMDA/1 μM glycine and the drug to be tested. Cells were pre-incubated with drugs and 1 μM glycine for 15 minutes before addition of NMDA. After 24 h the cytotoxic effect was morphologically examined under a phase contrast microscope and biochemically quantitified by measuring the efflux of LDH.
The activity of LDH was determined in the supernatant after 24 h according to the method of Wroblewski and La Due (1955). Briefly, 0.1 ml of the supernatant was added to 0.9 ml sodium-phosphate buffer (pH=7.5) containing sodium pyruvate (22.7 mM) and NADH (0.8 mg/10 ml) at room temperature. The conversion of pyruvate to lactate was recorded at 340 nm over 10 minutes in a Kontron Spectrophotometer.

Setting [6] is: peak currents, read-out: IC50 against peak AMPA induced currents.
Setting [7] is: peak currents, read-out: Peak AMPA IC50.
Where [8] appears, read: plateau currents, read-out: Plateau AMPA IC50.

In the case of `O=c1[nH]nc(O)c2c1cc1cc(F)ccc1[n+]2[O-]` [Mrz 2/516, 8-fluoro-4-hydroxy-1-oxo-1,2-dihydropyridazino[4,5-b]-quinoline 5-oxide], the IC50 (commonly the concentration that inhibits the measured activity by half) in test [1] (setting [6]) was 18 µM; in test [1] (setting [7]), 17.6 µM; in test [1] (setting [8]), above 100 µM. The “Microelectrophoretic NMDA ID50” value in test [2] and in test [2] (listed as 516) was 1.8 mg/kg each time. Also, the values for the ED50 in test [3] and in test [4] (15 min before induction) were 40 mg/kg and 16.6 mg/kg, respectively. In addition, the “activity in the MES test” value in test [4] is reported as “effective”.

Regarding `O=c1[nH]nc(O)c2c1cc1cc(Cl)ccc1[n+]2[O-]` [Mrz 2/502, 8-chloro-4-hydroxy-1-oxo-1,2-dihydropyridazino[4,5-b]-quinoline 5-oxide], the IC50 is below 5 µM in test [5]; 25 µM in test [1] (setting [6]); 25 µM in test [1] (setting [7]); 150 µM in test [1] (plateau currents, listed as 502, read-out: Plateau AMPA IC50); above 100 µM in test [1] (setting [8]). In addition, the neuroprotection in vitro result in test [5] is “effective neuroprotectants”. The “Microelectrophoretic NMDA ID50” value in test [2] and in test [2] (listed as 502) was 1.2 mg/kg each time. Moreover, in test [3], the ED50 came out at 26 mg/kg. Also, the “activity in the MES test” value in test [4] is reported as “effective”. In test [4] (15 min before induction, listed as 502, 15 min), the “MES ID50” value stood at 47.6 mg/kg.

As to `O=c1[nH][nH]c(=O)c2nc3ccc(F)cc3cc12` [Mrz 2/519], the “Microelectrophoretic NMDA ID50” value in test [2] was above 16.0 mg/kg. Also, the values for the ED50 in test [3] and in test [4] (15 min before induction) were above 100 mg/kg and above 60 mg/kg, respectively.

On to `O=c1[nH]nc(O)c2c1cc1cc(Br)ccc1[n+]2[O-]` [Mrz 2/514, 8-bromo-4-hydroxy-1-oxo-1,2-dihydropyridazino[4,5-b]-quinoline 5-oxide], for which the concentration for half-maximal inhibition (IC50) in test [1] (setting [6]) is 73 µM; in test [1] (setting [7]), 72.7 µM; in test [1] (plateau currents, listed as 514, read-out: Plateau AMPA IC50), 307 µM; in test [1] (setting [8]), above 100 µM. For the same compound, the ED50 in test [3] worked out at 99 mg/kg; in test [4] (15 min before induction), 20.2 mg/kg. The “activity in the MES test” value in test [4] is “effective”.

For the compound `O=c1[nH][nH]c(=O)c2nc3cc(Cl)c(Cl)cc3cc12` [Mrz 2/515], the ED50 in test [3] was 98 mg/kg; in test [4] (15 min before induction), above 100 mg/kg.

As for `O=c1[nH][nH]c(=O)c2nc3ccc(Cl)cc3cc12` [Mrz 2/501], in test [5], the 50% inhibitory concentration (IC50) was below 5 µM and the neuroprotection in vitro result is recorded as “effective neuroprotectants”. In test [2], the “Microelectrophoretic NMDA ID50” value is above 16.0 mg/kg. Moreover, the ED50 in test [3] was above 100 mg/kg. Moreover, the ED50 in test [4] (15 min before induction) is above 100 mg/kg.

On to `O=c1[nH][nH]c(=O)c2nc3ccc(Br)cc3cc12` [Mrz 2/503], for which, in test [5], the half-inhibitory concentration (IC50) is above 20 µM. Besides, the ED50 in test [3] and in test [4] (15 min before induction) was above 100 mg/kg throughout.
